Data set [1] deals with Candida albicans ATCC 10231 (A). In words: MIC determination in the presence and absence of FBS. Conditions: strains A, J, and L; +10% FBS versus no FBS. Type of data set: cell-based.
The subject of data set [2] is C. glabrata ATCC 2001 (strain H). In words: Time-kill assay. The note with it: 24 h, compound 22 at 4× MIC, VOR at 1× and 4× MIC. Type of data set: cell-based, Candida glabrata.
In data set [3] the test system is C. parapsilosis ATCC 22019 (strain J). Briefly: Time-kill assay. Type of data set: cell-based, Candida parapsilosis. Conditions: 24 h, at up to 8× MIC.
The next data set in a line: Hemolytic activity assay. Type of data set: cell-based. The note with it: mouse, murine red blood cells (mRBCs).
The test system of another data set is HEK-293. Briefly: In vitro cytotoxicity assay. Type of data set: cell-based. The note with it: 7.8 µg/mL, 24 h.
The next data set has as its system A549. In words: In vitro cytotoxicity assay. Type of data set: cell-based. Conditions: 7.8 µg/mL, 24 h.
Another data set deals with BEAS-2B. In words: In vitro cytotoxicity assay. Type of data set: cell-based. Conditions: 7.8 µg/mL, 24 h.
The subject of data set [4] is C. albicans ATCC 64124 (strain B) biofilms. In words: Biofilm assay.

Regarding `CCCCCCCCCCCCN1CCN(CC(O)(Cn2cncn2)c2ccc(F)cc2F)CC1` (centres unmarked) [Compound 22, 2-(2,4-Difluorophenyl)-1-(1H-1,2,4-triazol-1-yl)-3-(4-dodecylpiperazine)propan-2-ol], the “antifungal activity in the presence of FBS (in words)” value in data set [1] is “retained their full antifungal activity”. Besides, the “fungistatic or fungicidal activity (time-kill)” value in data set [2] is “fungicidal”; in data set [3], “fungistatic”. For the same compound, the hemolysis at 60 min, 7.8 µg/mL in “Hemolytic activity assay” was more than 50%. For the same compound, the cell survival entry with HEK-293, with A549 and in the data set with BEAS-2B was “less than 40%” throughout. Further, in data set [4], the “increase in MIC in biofilms (SMIC50 and SMIC80 versus MIC in liquid cultures)” value is 1–2 fold.

The values above are taken from PMC5976239 (Journal of medicinal chemistry, 2017).
